US6683211B1, “Phenyl-propargylether derivatives” (priority 2000, dated 2004)

What was measured:
Assay type in all cases: in vivo
[1] = tested on: Plasmopara viticola; assay: D-1a) residual-protective action against Plasmopara viticola on vines; settings: Plasmopara viticola, 144 h; 200 ppm; test D-1a) residual-protective; vine seedlings; evaluated after 6 days; read-out: inhibit fungal infestations
Description: (§1) D-1: Action Against Plasmopara viticola on Vines
(§2) a) Residual-protective Action
Vine seedlings are sprayed at the 4- to 5-leaf stage with a spray mixture (0.02% active ingredient) prepared from a wettable powder formulation of the test compound. After 24 hours, the treated plants are infected with a sporangia suspension of the fungus. Fungus infestation is evaluated after incubation for 6 days at 95-100% relative humidity and +20° C.

[2] = tested on: Plasmopara viticola; assay: D-1b) residual-curative action against Plasmopara viticola on vines; settings: Plasmopara viticola, 144 h; 200 ppm; test D-1b) residual-curative; vine seedlings; evaluated 6 days after infection; read-out: inhibit fungal infestations
Description: as §1
b) Residual-curative Action
Vine seedlings are infected at the 4- to 5-leaf stage with a sporangia suspension of the fungus. After incubation for 24 hours in a humidity chamber at 95-100% relative humidity and +20° C., the infected plants are dried and sprayed with a spray mixture (0.02% active ingredient) prepared from a wettable powder formulation of the test compound. After the spray coating has dried, the treated plants are placed in the humidity chamber again.
Fungus infestation is evaluated 6 days after infection.

[3] = tested on: Phytophthora; assay: D-2a) residual-protective action against Phytophthora on tomato plants; settings: Phytophthora, 120 h; 200 ppm; test D-2a) residual-protective, evaluated after 5 days, read-out: inhibit fungal infestations
Description: (§3) D-2: Action Against Phytophthora on Tomato Plants
as §2
After a cultivation period of 3 weeks, tomato plants are sprayed with a spray mixture (0.02% active ingredient) prepared from a wettable powder formulation of the test compound. After 48 hours, the treated plants are infected with a sporangia suspension of the fungus. Fungus infestation is evaluated after incubation of the infected plants for 5 days at 90-100% relative humidity and +20° C.

[4] = tested on: Phytophthora; assay: D-2b) systemic action against Phytophthora on tomato plants; settings: Phytophthora, 96 h; 200 ppm; test D-2b) systemic (soil watering), evaluated after 4 days, read-out: inhibit fungal infestations
Description: as §3
After a cultivation period of 3 weeks, tomato plants are watered with a spray mixture (0.02% active ingredient based on the volume of the soil) prepared from a wettable powder formulation of the test compound. […] After 96 hours, the treated plants are infected with a sporangia suspension of the fungus. Fungus infestation is evaluated after incubation of the infected plants for 4 days at 90-100% relative humidity and +20° C. […] Compounds E1.003, E1.004, E1.009, E1.011, E1.012, E1.014, E1.018, E1.019, E1.020, E1.021, E1.022, E1.023, E1.025, E1.031, E1.032, E1.033, E1.038, E1.040, E1.044, E1.045, E1.049, E1.050, E1.053, E1.055, E1.057, E1.064, E1.085, E1.089, E1.090, E1.091, E1.102, E1.08, E1.110, E1.112, E1.121, E1.125, E1.129, E1.139 and E1.141 at 200 ppm inhibit fungal infestations in both tests D-2a) and D-2b) by 80-100%.

[5] = tested on: Phytophthora; assay: D-3a) residual-protective action against Phytophthora on potato plants; settings: Phytophthora, 96 h; 200 ppm; test D-3a) residual-protective; potato plants (Bintje); evaluated after 4 days; read-out: inhibit fungal infestations
Description: (§4) D-3: Action Against Phytophthora on Potato Plants
as §2
2-3 week old potato plants (Bintje variety) are sprayed with a spray mixture (0.02% active ingredient) prepared from a wettable powder formulation of the test compound. After 48 hours, the treated plants are infected with a sporangia suspension of the fungus. Fungus infestation is evaluated after incubation of the infected plants for 4 days at 90-100% relative humidity and +20° C.

[6] = tested on: Phytophthora; assay: D-3b) systemic action against Phytophthora on potato plants; settings: Phytophthora, 96 h; 200 ppm; test D-3b) systemic (soil watering); potato plants (Bintje); evaluated after 4 days; read-out: inhibit fungal infestations
Description: as §4
2-3 week old potato plants (Bintje variety) are watered with a spray mixture (0.02% active ingredient based on the volume of the soil) prepared from a wettable powder formulation of the test compound. […] After 48 hours, the treated plants are infected with a sporangia suspension of the fungus. Fungus infestation is evaluated after incubation of the infected plants for 4 days at 90-100% relative humidity and +20° C. Fungal infestation is effectively controlled with compounds of Tables 1 to 35. Compounds E1.003, E1.004, E1.009, E1.011, E1.012, E1.019, E1.020, E1.021, E1.022, E1.025, E1.031, E1.032, E1.033, E1.038, E1.045, E1.049, E1.050, E1.053, E1.085, E1.089, E1.090, E1.091, E1.102, E1.110, E1.112, E1.121, E1.125, E1.129 at 200 ppm inhibit fungal infestations in both tests D-3a) and D-3b) by 80-100%.

Measured: inhibition at 200 ppm

C#CCOc1ccc(CCNC(=O)C(OC)c2ccc(Cl)cc2)cc1OC (stereo not drawn) [Compound E1.003, 2-(4-Chloro-phenyl)-2-methoxy-N-[2-(3-methoxy-4-prop-2-ynyloxy-phenyl)-ethyl]-acetamide]
80 to 100%: all assays above

C#CCOc1ccc(CCNC(=O)C(OCC)c2ccc(Cl)cc2)cc1OC (stereo not drawn) [Compound E1.004, 2-(4-chloro-phenyl)-2-ethoxy-N-[2-(3-methoxy-4-prop-2-ynyloxy-phenyl)-ethyl]-acetamide]
80 to 100%: all assays above

C#CCOc1ccc(CCNC(=O)C(OCC=C)c2ccc(Cl)cc2)cc1OC (stereo not drawn) [Compound E1.009, 2-allyloxy-2-(4-chloro-phenyl)-N-[2-(3-methoxy-4-prop-2-ynyloxy-phenyl)-ethyl]-acetamide]
80 to 100%: all assays above

C#CCOc1ccc(CCNC(=O)C(OCC#C)c2ccc(Cl)cc2)cc1OC (stereo not drawn) [Compound E1.011, 2-(4-chloro-phenyl)-N-[2-(3-methoxy-4-prop-2-ynyloxy-phenyl)-ethyl]-2-prop-2-ynyloxy-acetamide]
80 to 100%: all assays above

C#CCOC(C(=O)NCCc1ccc(OCC#CCC)c(OC)c1)c1ccc(Cl)cc1 (stereo not drawn) [Compound E1.012, 2-(4-chloro-phenyl)-N-[2-(3-methoxy-4-pent-2-ynyloxy-phenyl)-ethyl]-2-prop-2-ynyloxy-acetamide]
80 to 100%: all assays above

C#CCOc1ccc(CCNC(=O)C(OCC#CC)c2ccc(Cl)cc2)cc1OC (stereo not drawn) [Compound E1.014, 2-but-2-ynyloxy-2-(4-chloro-phenyl)-N-[2-(3-methoxy-4-prop-2-ynyloxy-phenyl)-ethyl]-acetamide]
80 to 100%: [1] | [2] | [3] | [4]

C#CCOc1ccc(CCNC(=O)C(OCOCC)c2ccc(Cl)cc2)cc1OC (stereo not drawn) [Compound E1.018, 2-(4-chloro-phenyl)-2-ethoxymethoxy-N-[2-(3-methoxy-4-prop-2-ynyloxy-phenyl)-ethyl]-acetamide]
80 to 100%: [1] | [2] | [3] | [4]

C#CCOc1ccc(CCNC(=O)C(OC)c2ccc(Br)cc2)cc1OC (stereo not drawn) [Compound E1.019, 2-(4-bromo-phenyl)-2-methoxy-N-[2-(3-methoxy-4-prop-2-ynyloxy-phenyl)-ethyl]-acetamide]
80 to 100%: all assays above

C#CCOc1ccc(CCNC(=O)C(OCC)c2ccc(Br)cc2)cc1OC (stereo not drawn) [Compound E1.020, 2-(4-bromo-phenyl)-2-ethoxy-N-[2-(3-methoxy-4-prop-2-ynyloxy-phenyl)-ethyl]-acetamide]
80 to 100%: all assays above

C#CCOc1ccc(CCNC(=O)C(OCC=C)c2ccc(Br)cc2)cc1OC (stereo not drawn) [Compound E1.021, 2-allyloxy-2-(4-bromo-phenyl)-N-[2-(3-methoxy-4-prop-2-ynyloxy-phenyl)-ethyl]-acetamide]
80 to 100%: all assays above

C#CCOC(C(=O)NCCc1ccc(OCC#CCC)c(OC)c1)c1ccc(Br)cc1 (stereo not drawn) [Compound E1.023, 2-(4-bromo-phenyl)-N-[2-(3-methoxy-4-pent-2-ynyloxy-phenyl)-ethyl]2-prop-2-ynyloxy-acetamide]
80 to 100%: [1] | [2] | [3] | [4]

C#CCOc1ccc(CCNC(=O)C(OCC#CC)c2ccc(Br)cc2)cc1OC (stereo not drawn) [Compound E1.025, 2-(4-bromo-phenyl)-2-but-2-ynyloxy-N-[2-(3-methoxy-4-prop-2-ynyloxy-phenyl)-ethyl]-acetamide]
80 to 100%: all assays above

C#CCOc1ccc(CCNC(=O)C(OCC#C)c2ccc(F)cc2)cc1OC (stereo not drawn) [Compound E1.033, 2-(4-fluoro-phenyl)-N-[2-(3-methoxy-4-prop-2-ynyloxy-phenyl)-ethyl]-2-prop-2-ynyloxy-acetamide]
80 to 100%: all assays above

C#CCOc1ccc(CCNC(=O)C(OCC#C)c2ccc(C(F)(F)F)cc2)cc1OC (stereo not drawn) [Compound E1.050, N-[2-(3-methoxy-4-prop-2-ynyloxy-phenyl)-ethyl]-2-prop-2-ynyloxy-2-(4-trifluoromethyl-phenyl)-acetamide]
80 to 100%: all assays above

C#CCOc1ccc(CCNC(=O)C(OCC#C)c2ccc(CC)cc2)cc1OC (stereo not drawn) [Compound E1.053, 2-(4-ethyl-phenyl)-N-[2-(3-methoxy-4-prop-2-ynyloxy-phenyl)-ethyl]-2-prop-2-ynyloxy-acetamide]
80 to 100%: all assays above

C#CCOc1ccc(CCNC(=O)C(OCC#C)c2ccc(F)c(F)c2)cc1OC (stereo not drawn) [Compound E1.085, 2-(3,4-difluoro-phenyl)-N-[2-(3-methoxy-4-prop-2-ynyloxy-phenyl)-ethyl]-2-prop-2-ynyloxy-acetamide]
80 to 100%: all assays above
